According to patent publication US20100010219A1, “METHOD FOR PRODUCING PYRROLIDINE COMPOUND” (JAPAN TOBACCO INC., priority 2006, published 2010):
Counter-ions that a name gives are not always drawn.

Target: T1, human HSD-1 (recombinant HSD-1) (Homo sapiens, UniProt P28845)
T1 construct: made in house
Assay: HSD-1 activity inhibitory action in vitro (SPA, conversion of cortisone to cortisol)
Type: biochemical
Conditions: recombinant human HSD-1 expressed using baculovirus system; 10 nM 3H cortisone, 500 μM NADPH; room temperature 90 to 120 min; read-out: hHSD1 (IC50 (nM))

T1 sequence (P28845 whole entry): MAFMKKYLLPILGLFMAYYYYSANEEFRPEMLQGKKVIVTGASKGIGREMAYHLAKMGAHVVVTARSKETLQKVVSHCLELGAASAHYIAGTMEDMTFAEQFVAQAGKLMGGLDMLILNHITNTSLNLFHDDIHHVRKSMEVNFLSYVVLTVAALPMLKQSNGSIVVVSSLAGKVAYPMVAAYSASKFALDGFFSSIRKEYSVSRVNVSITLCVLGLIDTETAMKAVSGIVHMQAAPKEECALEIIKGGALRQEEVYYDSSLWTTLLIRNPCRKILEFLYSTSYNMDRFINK

IC50, < 30 nM:
CC(C)N1CCN(C(=O)N2CCC(n3ncc(C(=O)N4CC[C@@H](c5ccccc5C(F)(F)F)C4)c3C3CC3)CC2)CC1 [Example 30, 1-{5-cyclopropyl-1-[1-(4-isopropylpiperazine-1-carbonyl)piperidin-4-yl]-1H-pyrazole-4-carbonyl}-[(S)-3-(2-trifluoromethylphenyl)]pyrrolidine hydrochloride]
NC(=O)CN1CCC(n2ncc(C(=O)N3CC[C@@H](c4ccccc4C(F)(F)F)C3)c2C2CC2)CC1 [Example 94, 1-[1-(1-carbamoylmethylpiperidin-4-yl)-5-cyclopropyl-1H-pyrazole-4-carbonyl]-[(S)-3-(2-trifluoromethylphenyl)]pyrrolidine hydrochloride]
COC(=O)c1ccccc1C1CCN(C(=O)c2cnn(C3CCN(c4ncccn4)CC3)c2C2(C)CC2)C1 (centres unmarked) [Example 179, methyl 2-{1-[5-(1-methylcyclopropyl)-1-(1-pyrimidin-2-ylpiperidin-4-yl)-1H-pyrazole-4-carbonyl]pyrrolidin-3-yl}benzoate]
C[C@@H]1CN(C(=O)c2cnn(C3CCN(c4ncccn4)CC3)c2C2(C)CC2)C[C@H]1c1ccccc1 (relative stereo) [Example 177, {(3S*,4R*)-3-methyl-1-{5-(1-methylcyclopropyl)-1-[1-(pyrimidin-2-yl)piperidin-4-yl]-1H-pyrazole-4-carbonyl}-4-phenylpyrrolidine hydrochloride]
O=C(NCc1ccc(F)cc1)N1CCC(n2ncc(C(=O)N3CCC(c4ccccc4C(F)(F)F)C3)c2C2CC2)CC1 (centres unmarked) [Example 147, 1-{5-cyclopropyl-1-[1-(4-fluorobenzylcarbamoyl)piperidin-4-yl]-1H-pyrazole-4-carbonyl}-3-(2-trifluoromethylphenyl)pyrrolidine]
CC1(c2c(C(=O)N3CCC(c4cccnc4)C3)cnn2C2CCN(C(=O)N3CCCCc4ccccc43)CC2)CC1 (centres unmarked) [Example 151, 1-{5-(1-methylcyclopropyl)-1-[1-(2,3,4,5-tetrahydrobenzo[b]azepine-1-carbonyl)piperidin-4-yl]-1H-pyrazole-4-carbonyl}-3-(pyridin-3-yl)pyrrolidine]
O=C(O)C(=O)N1CCC(n2ncc(C(=O)N3CCC(c4ccccc4C(F)(F)F)C3)c2C2CC2)CC1 (centres unmarked) [Example 158, 1-[5-cyclopropyl-1-(1-oxalylpiperidin-4-yl)-1H-pyrazole-4-carbonyl]-3-(2-trifluoromethylphenyl)pyrrolidine]
CNCC(=O)N1CCC(n2ncc(C(=O)N3CC[C@@H](c4ccccc4C(F)(F)F)C3)c2C2CC2)CC1 [Example 85, 1-{5-cyclopropyl-1-[1-(2-methylaminoacetyl)piperidin-4-yl]-1H-pyrazole-4-carbonyl}-[(S)-3-(2-trifluoromethylphenyl)]pyrrolidine hydrochloride]
CC1(c2c(C(=O)N3CCC(c4ccccc4C(F)(F)F)C3)cnn2[C@H]2CC[C@H](C(=O)Nc3ccccc3F)CC2)CC1 (stereo partly drawn) [Example 190, 1-{5-(1-methylcyclopropyl)-1-[trans-4-(2-fluorophenylcarbamoyl)cyclohexyl]-1H-pyrazole-4-carbonyl}-3-(2-trifluoromethylphenyl)pyrrolidine]
O=C(N[C@H](CO)Cc1ccccc1)N1CCC(n2ncc(C(=O)N3CC[C@@H](c4ccccc4C(F)(F)F)C3)c2C2CC2)CC1 [Example 50, 1-(1-{1-[(S)-1-benzyl-2-hydroxyethylcarbamoyl]piperidin-4-yl}-5-cyclopropyl-1H-pyrazole-4-carbonyl)-[(S)-3-(2-trifluoromethylphenyl)]pyrrolidine]
O=C(c1cnn(C2CCN(c3ccc(CO)cc3)CC2)c1C1CC1)N1CCC(c2ccccc2C(F)(F)F)C1 (centres unmarked) [Example 166, 1-{5-cyclopropyl-1-[1-(4-hydroxymethylphenyl)piperidin-4-yl]-1H-pyrazole-4-carbonyl}-3-(2-trifluoromethylphenyl)pyrrolidine]
CN(C)C1CCN(C(=O)N2CCC(n3ncc(C(=O)N4CC[C@@H](c5ccccc5C(F)(F)F)C4)c3C3CC3)CC2)C1 (stereo partly drawn) [Example 41, 1-{5-cyclopropyl-1-[1-(3-dimethylaminopyrrolidine-1-carbonyl)piperidin-4-yl]-1H-pyrazole-4-carbonyl}-[(S)-3-(2-trifluoromethylphenyl)]pyrrolidine hydrochloride]
CC(=O)N1CCC(C(=O)N2CCC(n3ncc(C(=O)N4CC[C@@H](c5ccccc5C(F)(F)F)C4)c3C3CC3)CC2)CC1 [Example 91, 1-{1-[1-(1-acetylpiperidine-4-carbonyl)piperidin-4-yl]-5-cyclopropyl-1H-pyrazole-4-carbonyl}-[(S)-3-(2-trifluoromethylphenyl)]pyrrolidine]
O=C(O)C1CCN(C(=O)N2CCC(n3ncc(C(=O)N4CC[C@@H](c5ccccc5C(F)(F)F)C4)c3C3CC3)CC2)CC1 [Example 25, 1-{1-[1-(4-carboxypiperidine-1-carbonyl)piperidin-4-yl]-5-cyclopropyl-1H-pyrazole-4-carbonyl}-[(S)-3-(2-trifluoromethylphenyl)]pyrrolidine]
CNC(=O)CN1CCC(n2ncc(C(=O)N3CC[C@@H](c4ccccc4C(F)(F)F)C3)c2C2CC2)CC1 [Example 95, 1-[5-cyclopropyl-1-(1-methylcarbamoylmethylpiperidin-4-yl)-1H-pyrazole-4-carbonyl]-[(S)-3-(2-trifluoromethylphenyl)]pyrrolidine hydrochloride]
CN1CCN(C(=O)N2CCC(n3ncc(C(=O)N4CC[C@@H](c5ccccc5C(F)(F)F)C4)c3C3CC3)CC2)CC1 [Example 29, 1-{5-cyclopropyl-1-[1-(4-methylpiperazine-1-carbonyl)piperidin-4-yl]-1H-pyrazole-4-carbonyl}-[(S)-3-(2-trifluoromethylphenyl)]pyrrolidine hydrochloride]
O=C(c1cnn(C2CCN(C(=O)N3CCC(O)CC3)CC2)c1C1CC1)N1CC[C@@H](c2ccccc2C(F)(F)F)C1 [Example 14, 1-{5-cyclopropyl-1-[1-(4-hydroxypiperidine-1-carbonyl)piperidin-4-yl]-1H-pyrazole-4-carbonyl}-[(S)-3-(2-trifluoromethylphenyl)]pyrrolidine]
